The record followed here is patent publication US20220168427A1 (Ranok Therapeutics (Hangzhou) Co. Ltd., priority 2019, published 2022).

For series [1], the system named is EGFR. In words: HSP90 Client Protein Degradation Flow Cytometry Assay, EGFR in HEK-293 cells. Type of series: cell-based, human. Here is the method:
(§1) MV4-11 cells were plated in a 24-well tissue culture plate at a density of 350,000 cells/450 μL/well and incubated in 37° C./5% CO2 for 1 hr. Cells were then treated with compounds at various concentrations and incubated in 37° C./5% CO2 for 24 hr. Cells were harvested, washed once, counted and 200 μL of 1% paraformaldehyde/PBS was added and incubated for 15 min at room temperature. 200 μL of 1×PBS/0.4% Triton X-100 was added and incubated for 15 min at 4° C. Cells were washed three times and resuspended in 50 μL of 1×PBS/0.2% Triton X-100. 2 μL/10^6 cells of anti-BRD4 antibody (ABCAM, #128874) was added and mixed by pipetting up and down. Cells were incubated for 30 min at room temperature in the dark, washed three times and resuspended in 50 μL of 1×PBS/0.2% Triton X-100. Goat anti-rabbit IgG H&L antibody (1:2000 dilution) was added and mixed by pipetting up and down and incubated for 30 min at room temperature in the dark. Finally, cells were washed three times and resuspended in 200 μL of PBS for flow cytometric analysis.
(§2) Similar flow cytometry experiments for ERBB2 in BT-474 human breast carcinoma cells (ATCC, #HTB-20) and IGF1R, EGFR and RAF1 in HEK-293 human embryonic kidney (ATCC, #CRL-1573) were performed using anti-ERBB2 (R&D, #FAB1129P), anti-IGF1R (Cell Signaling Technology, #9750), anti-EGFR (Cell Signaling Technology, #139690) and anti-RAF1 (ABCAM, #ab181115) antibodies.

Series [2] deals with MV4-11 xenograft. The series is described as follows: MV4-11 AML tumor xenograft study in mice. To be noted: for animals tumor free at the end of the study: 3 weeks; for tumor growth inhibition: after 3 weeks of dosing. The method, then:
(§3) Tumor Xenograft Studies in Mice
MV4-11 acute myeloid leukemia and SU-DHL-4 diffuse large B-cell lymphoma (ATCC, #CRL-2957) cells were cultured in medium supplemented with 10% fetal bovine serum at 37° C./5% CO2. 5×10^6 MV-4-11 or 1×10^7 SU-DHL-4 cells were collected and re-suspended in 0.1 mL of serum-free media with Matrigel (1:1 v/v) per mouse for subcutaneous inoculation in isoflurane anesthetized male BALB/c nude or C.B-17 scid mice, respectively (treated in accordance with AAALAC animal welfare guidelines). When the average tumor volumes reached 100-200 mm^3, tumor volume outliers were removed and the remaining animals randomly divided into groups of 6-8 with similar average tumor volumes in each group. […] […] The appearance and behavior of each mouse was observed and recorded daily. Body weights and tumor volumes were measured and recorded every 2-4 days and the results were expressed as group means±SEM. Pairwise statistical comparisons between groups were performed by one-way ANOVA, and p<0.05 was considered statistically significant.

In series [3] the test system is RAF1. In words: HSP90 Client Protein Degradation Flow Cytometry Assay, RAF1 in HEK-293 cells. Type of series: cell-based, human. The method, then:
as §1, §2
(In general: In flow cytometry, cells or beads pass a laser one at a time.)

Series [4] relates to MV4-11 cells. In words: MV4-11 Cell Cytotoxicity Assay. It counts as cell-based, human. To be noted: 72 hr, CCK-8. The text has this:
% Inhibition=100−(D−B)/(S−B)*100%.
S: The absorbance of the maximum (cells with DMSO)
B: The absorbance of the minimum (medium with DMSO)

Series [5] concerns HSP90 client proteins (ERBB2, IGF1R, EGFR, RAF1). In words: HSP90 Client Protein Degradation Flow Cytometry Assay, all clients together. It counts as cell-based, human. To be noted: versus 59 nM for BRD4 degradation by western blotting in MV4-11 cells. Here is the method:
as §1
Similar flow cytometry experiments for ERBB2 in BT-474 human breast carcinoma cells (ATCC, #HTB-20) and IGF1R, EGFR and RAF1 in HEK-293 human embryonic kidney (ATCC, #CRL-1573) were performed using anti-ERBB2 (R&D, #FAB1129P), anti-IGF1R (Cell Signaling Technology, #9750), anti-EGFR (Cell Signaling Technology, #139690) and anti-RAF1 (ABCAM, #ab181115) antibodies. […]

Series [6] relates to SU-DHL-4 xenograft. In words: SU-DHL-4 DLBCL tumor xenograft study in mice. The method, then: as §3
5×10^6 MV-4-11 or 1×10^7 SU-DHL-4 cells were collected and re-suspended in 0.1 mL of serum-free media with Matrigel (1:1 v/v) per mouse for subcutaneous inoculation in isoflurane anesthetized male BALB/c nude or C.B-17 scid mice, respectively (treated in accordance with AAALAC animal welfare guidelines). When the average tumor volumes reached 100-200 mm^3, tumor volume outliers were removed and the remaining animals randomly divided into groups of 6-8 with similar average tumor volumes in each group. […] Animals were intravenously dosed at 25 mg/kg, 50 mg/kg or 100 mg/kg 1×/week for 3 or 4 weeks. The appearance and behavior of each mouse was observed and recorded daily. Body weights and tumor volumes were measured and recorded every 2-4 days and the results were expressed as group means±SEM. Pairwise statistical comparisons between groups were performed by one-way ANOVA, and p<0.05 was considered statistically significant.

Series [7] addresses HSP90α (Homo sapiens, UniProt P07900). The series is described as follows: HSP90α Binding Fluorescent Polarization (FP) Assay. Summed up: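 Competitive FP assay in which compound displaces FITC-geldanamycin from recombinant HSP90α (28 μg/ml before addition) in BSA-containing buffer. Compounds in 3-fold series from 40 μM to 2.0 nM (dilution-plate concentrations), tested in duplicate. Readings after 30, 60 and 120 min at 25 °C; background-subtracted mP fitted to four-parameter log[inhibitor]-response curve.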

The subject of series [8] is IGF1R. In words: HSP90 Client Protein Degradation Flow Cytometry Assay, IGF1R in HEK-293 cells. It counts as cell-based, human. The method, then: as §1, §2
Setting [9] is: 100 mg/kg intravenously 1×/week.
Setting [10] is: 100 mg/kg intravenously 1×/week, after 4 weeks of dosing.

As for `Cc1sc2c(c1C)C(c1ccc(Cl)cc1)=N[C@@H](CC(=O)N1CCC(CN3CCN(Cc4ccc(-n5c(O)nnc5-c5cc(C(C)C)c(O)cc5O)cc4)CC3)CC1)c1nnc(C)n1-2.Cl` [Compound 74, (S)-2-(4-(4-chlorophenyl)-2,3,9-trimethyl-6H-thieno[3,2-f][1,2,4]triazolo[4,3-a][1,4]diazepin-6-yl)-1-(4-((4-(4-(3-(2,4-dihydroxy-5-isopropylphenyl)-5-hydroxy-4H-1,2,4-triazol-4-yl)benzyl)piperazin-1-yl)methyl)piperidin-1-yl)ethan-1-one hydrochloride], the IC50 was 0.405 µM in series [1]; 0.762 µM in series [3]; < 0.1 µM in series [4]; 0.1 to 1 µM in series [7] (competition with FITC-geldanamycin, read-out: HSP90 Binding Potency); 1.05 µM in series [8]. In addition, the figures for the “animals tumor free at the end of the study” value in series [2] (50 mg/kg intravenously 1×/week) and in series [2] (setting [9]) were 1 out of 6 and 4 out of 6, respectively. The tumor growth inhibition result in series [2] (50 mg/kg intravenously 1×/week), in series [2] (setting [9]) and in series [6] (setting [10]) was “significant tumor growth inhibition” in each case. Moreover, the “animal deaths and body weights” value in series [2] (any group) and in series [6] (any dose level) was “No animal deaths or significant effects on body weights were observed” in each case. Further, in series [5], the “IC50 for HSP90 clients higher than the IC50 value for BRD4 degradation” value was 6- to 18 fold. Further, the “tumor vs control (T/C) value” in series [6] (setting [10]) turned out to be 41%. Further, the “potency in binding to HSP90, in words” value in series [7] is recorded as “moderate potency”.
